Measured values published in patent US20240101570A1 (AMGEN INC., priority 2020, published 2024).

Assays:
HCT116 WT cells = assay: HCT116 WT cell proliferation / viability (CellTiter-Glo, 6 days); assay type: cell-based; conditions: Homo sapiens, HCT-116, 144 h, HCT116 WT cells, 6 days, CellTiter-Glo; read-out: HCT-116 WT IC50
Procedure, shortened: (§1)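 CellTiter-Glo luminescence, 6-day exposure, RPMI 1640 + 10% FBS. Dosing: 1:3 series (8-9 pts, top 1 or 10 μM) or 1:2 series (22 pts, top 10 or 50 μM), DMSO control. IC50 = 50% of control via curve fit.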

HCT116 MTAP null cells = assay: HCT116 MTAP null cell proliferation / viability (CellTiter-Glo, 6 days); assay type: cell-based; conditions: HCT116-MTAP null, 144 h, HCT116 MTAP null cells, 6 days, CellTiter-Glo; read-out: HCT-116 MTAP null IC50
Procedure, shortened: as §1

Structure (SMILES) | IC50 (HCT116 WT cells) | IC50 (HCT116 MTAP null cells)
C[C@H]1OCc2c1c(N)nc1ccc(C(=O)N(Cc3ccc(C#N)cn3)CC3CC3)cc21 [Example 331, (3R)-4-amino-N-((5-cyano-2-pyridinyl)methyl)-N-(cyclopropylmethyl)-3-methyl-1,3-dihydrofuro[3,4-c]quinoline-8-carboxamide] | 2300 nM | 28 nM
C[C@H]1OCc2c1c(N)nc1ccc(C(=O)N(Cc3ccc(C(F)(F)F)nn3)CC3CC3)cc21 [Example 333, (3R)-4-amino-N-(cyclopropylmethyl)-3-methyl-N-((6-(trifluoromethyl)-3-pyridazinyl)methyl)-1,3-dihydrofuro[3,4-c]quinoline-8-carboxamide] | 1410 nM | 24 nM
C[C@H]1OCc2c1c(N)nc1ccc(C(=O)N(Cc3ccc(C(F)(F)F)cn3)CC(C)(C)C)cc21 [Example 338, (3R)-4-amino-N-(2,2-dimethylpropyl)-3-methyl-N-((5-(trifluoromethyl)-2-pyridinyl)methyl)-1,3-dihydrofuro[3,4-c]quinoline-8-carboxamide] | 5830 nM | 406 nM
C[C@H]1OCc2c1c(N)nc1ccc(C(=O)N(Cc3ccc(C(F)(F)F)cn3)CC3(C)CC3)cc21 [Example 339, (3R)-4-amino-3-methyl-N-((1-methylcyclopropyl)methyl)-N-((5-(trifluoromethyl)-2-pyridinyl)methyl)-1,3-dihydrofuro[3,4-c]quinoline-8-carboxamide] | 611 nM | 25 nM
CC(C)(C)CN(Cc1ccc(C(F)(F)F)cn1)C(=O)c1ccc2nc(N)c3c(c2c1)COC3(C)C [Example 340, 4-amino-N-(2,2-dimethylpropyl)-3,3-dimethyl-N-((5-(trifluoromethyl)-2-pyridinyl)methyl)-1,3-dihydrofuro[3,4-c]quinoline-8-carboxamide] | > 10000 nM | 2950 nM
Nc1nc2ccc(C(=O)N(Cc3ccc(C4CC4)cn3)C3CC3)cc2c2c1COC2 [Example 343, 4-amino-N-cyclopropyl-N-((5-cyclopropyl-2-pyridinyl)methyl)-1,3-dihydrofuro[3,4-c]quinoline-8-carboxamide] | 8240 nM | 270 nM
CN(Cc1ccc(C(F)(F)F)cn1)C(=O)c1cc2c3c(c(N)nc2cn1)COC3 [Example 344, 4-amino-N-methyl-N-((5-(trifluoromethyl)-2-pyridinyl)methyl)-1,3-dihydrofuro[3,4-c][1,7]naphthyridine-8-carboxamide] | > 10000 nM | 244 nM
CC(C)N(Cc1ccc(C(F)(F)F)cn1)C(=O)c1cc2c3c(c(N)nc2cc1F)COC3 [Example 345, 4-amino-7-fluoro-N-(2-propanyl)-N-((5-(trifluoromethyl)-2-pyridinyl)methyl)-1,3-dihydrofuro[3,4-c]quinoline-8-carboxamide] | 210 nM | 11 nM
Nc1nc2cnc(C(=O)N(Cc3ccc(C4CC4)cn3)C3CC3)cc2c2c1COC2 [Example 348, 4-amino-N-cyclopropyl-N-((5-cyclopropyl-2-pyridinyl)methyl)-1,3-dihydrofuro[3,4-c][1,7]naphthyridine-8-carboxamide] | 9040 nM | 155 nM
CN(Cc1ccc(C2CC2)cn1)C(=O)c1cc2c3c(c(N)nc2cn1)COC3 [Example 349, 4-amino-N-((5-cyclopropyl-2-pyridinyl)methyl)-N-methyl-1,3-dihydrofuro[3,4-c][1,7]naphthyridine-8-carboxamide] | 9190 nM | 325 nM
CC(C)N(Cc1ccc(C2CC2)nc1)C(=O)c1ccc2nc(N)c3c(c2c1)CO[C@@H]3C [Example 350, (3R)-4-amino-N-((6-cyclopropyl-3-pyridinyl)methyl)-3-methyl-N-(2-propanyl)-1,3-dihydrofuro[3,4-c]quinoline-8-carboxamide] | 22100 nM | 332 nM
C[C@H]1OCc2c1c(N)nc1ccc(C(=O)N(Cc3ccc(C(F)(F)F)cn3)C3CC3)cc21 [Example 351, (3R)-4-amino-N-cyclopropyl-3-methyl-N-((5-(trifluoromethyl)-2-pyridinyl)methyl)-1,3-dihydrofuro[3,4-c]quinoline-8-carboxamide] | 3510 nM | 48 nM
C[C@H]1OCc2c1c(N)nc1ccc(C(=O)N(Cc3ccc(C#N)cn3)C3CC3)cc21 [Example 355, (3R)-4-amino-N-((5-cyano-2-pyridinyl)methyl)-N-cyclopropyl-3-methyl-1,3-dihydrofuro[3,4-c]quinoline-8-carboxamide] | 19000 nM | 171 nM
C[C@H]1OCc2c1c(N)nc1ccc(C(=O)N(C)Cc3ccc(C4CC4)cn3)cc21 [Example 356, (3R)-4-amino-N-((5-cyclopropyl-2-pyridinyl)methyl)-N,3-dimethyl-1,3-dihydrofuro[3,4-c]quinoline-8-carboxamide] | 5360 nM | 92 nM
CC(C)N(Cc1ccc(C(F)(F)F)nn1)C(=O)c1cc2c3c(c(N)nc2cc1F)COC3 [Example 358, 4-amino-7-fluoro-N-(2-propanyl)-N-((6-(trifluoromethyl)-3-pyridazinyl)methyl)-1,3-dihydrofuro[3,4-c]quinoline-8-carboxamide] | 8160 nM | 121 nM

Now from value to molecule:

IC50 (HCT116 WT cells) | IC50 (HCT116 MTAP null cells) | Structure (SMILES)
> 10000 nM | 204 nM | CN(Cc1ccc(Br)cn1)C(=O)c1ccc2nc(N)c3c(c2c1)COC3 [Example 330, 4-amino-N-((5-bromo-2-pyridinyl)methyl)-N-methyl-1,3-dihydrofuro[3,4-c]quinoline-8-carboxamide]
6100 nM | 120 nM | CC(C)N(Cc1ccc(Br)nn1)C(=O)c1ccc2nc(N)c3c(c2c1)CO[C@@H]3C [Example 332, (3R)-4-amino-N-((6-bromo-3-pyridazinyl)methyl)-3-methyl-N-(2-propanyl)-1,3-dihydrofuro[3,4-c]quinoline-8-carboxamide]
509 nM | 10 nM | C[C@H]1OCc2c1c(N)nc1ccc(C(=O)N(Cc3ccc(C(F)(F)F)cn3)CC3CC3)cc21 [Example 334, (3R)-4-amino-N-(cyclopropylmethyl)-3-methyl-N-((5-(trifluoromethyl)-2-pyridinyl)methyl)-1,3-dihydrofuro[3,4-c]quinoline-8-carboxamide]
2570 nM | 87 nM | Nc1nc2ccc(C(=O)N(Cc3ccc(C(F)(F)F)nn3)CC3CC3)cc2c2c1COC2 [Example 336, 4-amino-N-(cyclopropylmethyl)-N-((6-(trifluoromethyl)-3-pyridazinyl)methyl)-1,3-dihydrofuro[3,4-c]quinoline-8-carboxamide]
714 nM | 33 nM | CC1(CN(Cc2ccc(C(F)(F)F)cn2)C(=O)c2ccc3nc(N)c4c(c3c2)COC4)CC1 [Example 337, 4-amino-N-((1-methylcyclopropyl)methyl)-N-((5-(trifluoromethyl)-2-pyridinyl)methyl)-1,3-dihydrofuro[3,4-c]quinoline-8-carboxamide]
3790 nM | 212 nM | CC1(CN(Cc2ccc(C(F)(F)F)cn2)C(=O)c2ccc3nc(N)c4c(c3c2)COC4(C)C)CC1 [Example 341, 4-amino-3,3-dimethyl-N-((1-methylcyclopropyl)methyl)-N-((5-(trifluoromethyl)-2-pyridinyl)methyl)-1,3-dihydrofuro[3,4-c]quinoline-8-carboxamide]
19400 nM | 1090 nM | CC(C)N(Cc1ccc(C#N)cn1)C(=O)c1cc2c3c(c(N)nc2cn1)COC3 [Example 346, 4-amino-N-((5-cyano-2-pyridinyl)methyl)-N-(2-propanyl)-1,3-dihydrofuro[3,4-c][1,7]naphthyridine-8-carboxamide]
43800 nM | 712 nM | N#Cc1ccc(CN(C(=O)c2cc3c4c(c(N)nc3cn2)COC4)C2CC2)nc1 [Example 347, 4-amino-N-((5-cyano-2-pyridinyl)methyl)-N-cyclopropyl-1,3-dihydrofuro[3,4-c][1,7]naphthyridine-8-carboxamide]
> 10000 nM | 872 nM | CN(Cc1ccc(C(F)(F)F)nn1)C(=O)c1ccc2nc(N)c3c(c2c1)COC3 [Example 352, 4-amino-N-methyl-N-((6-(trifluoromethyl)-3-pyridazinyl)methyl)-1,3-dihydrofuro[3,4-c]quinoline-8-carboxamide]
> 10000 nM | 124 nM | C[C@H]1OCc2c1c(N)nc1ccc(C(=O)N(Cc3ccc(C(F)(F)F)nn3)C3CC3)cc21 [Example 353, (3R)-4-amino-N-cyclopropyl-3-methyl-N-((6-(trifluoromethyl)-3-pyridazinyl)methyl)-1,3-dihydrofuro[3,4-c]quinoline-8-carboxamide]
21400 nM | 623 nM | CC(C)N(Cc1ccc(C#N)cn1)C(=O)c1ccc2nc(N)c3c(c2c1)CO[C@@H]3C [Example 354, (3R)-4-amino-N-((5-cyano-2-pyridinyl)methyl)-3-methyl-N-(2-propanyl)-1,3-dihydrofuro[3,4-c]quinoline-8-carboxamide]
4270 nM | 115 nM | Nc1nc2cc(F)c(C(=O)N(Cc3ccc(C(F)(F)F)nn3)C3CC3)cc2c2c1COC2 [Example 357, 4-amino-N-cyclopropyl-7-fluoro-N-((6-(trifluoromethyl)-3-pyridazinyl)methyl)-1,3-dihydrofuro[3,4-c]quinoline-8-carboxamide]
10200 nM | 226 nM | CN(Cc1ccc(C(F)(F)F)nn1)C(=O)c1cc2c3c(c(N)nc2cc1F)COC3 [Example 359, 4-amino-7-fluoro-N-methyl-N-((6-(trifluoromethyl)-3-pyridazinyl)methyl)-1,3-dihydrofuro[3,4-c]quinoline-8-carboxamide]
